Laboratory results from patent publication US8574834B2, “Method for predicting the response to a therapy” (Index Pharmaceuticals AB, priority 2007, dated 2013).

Test system: Tsp1 gene
Test: Tsp1 gene expression in PBMC after 48 hrs stimulation, real-time PCR
Type: cell-based, human
Conditions: 10^-6 M Dex, normalised to basal expression
Description: FIG. 2 depicts the average value of expression level of Tsp1 gene in PBMC in response to 48 hrs stimulation with IDX0150 alone, Dex alone, or IDX0150 and Dex combination as quantified by real-time PCR. The experimental conditions and data handling were as described in FIG. 1 and Example 1.
FIG. 5 depicts the average value of expression level of Tsp1 gene in PBMC in response to 48 hrs stimulation with IDX0150 alone, Dex alone, or IDX0150 and Dex combination as quantified by real-time PCR. The experimental conditions and data handling were as described in FIG. 4 and Example 1.
Peripheral blood mononuclear cells (PMBC) were isolated from blood samples of seven steroid resistant asthma or ulcerative colitis patients and ten healthy volunteers by density gradient centrifugation using Ficoll-Paque Plus (Pharmacia Biotech), washed three times in buffered saline solution (PBS), and resuspended in complete RPMI 1640 (Sigma/Gibco) containing 15% heat inactivated fetal bovine serum (FCS) (Gibco, Life Technologies), 100 U/ml penicillin, 100 μg/ml streptomycin (Life Technologies), 2 mM L-glutamine (Sigma), gentamycin 25 ug/ml (Sigma) and 5 mM Hepes (Gibco, Life Technologies). Cells were counted using 0.4% Trypan blue solution (Sigma Aldrich). On average the yield of PBMC was in range of 60-120×10^6 cells per donor sample. […]

C[C@@H]1C[C@H]2[C@@H]3CCC4=CC(=O)C=C[C@]4(C)[C@@]3(F)[C@@H](O)C[C@]2(C)[C@@]1(O)C(=O)CO [dexamethasone]
induction of Tsp1: 3-5 fold
